These results are taken from ChEMBL document CHEMBL1144105, “Antioxidant principles from Ephemerantha lonchophylla” (J Nat Prod, 1999).

This test is described as follows: Antioxidant activity against copper-induced lipid peroxidation in human LDL after 1 hr relative to probucol. The class given is functional.

`COC1=CC(=O)c2ccc3cc(OC)cc(O)c3c2C1=O` displayed an Activity of 0.4%.

Regarding `COc1cc(CCc2cc(OC)c(O)c(OC)c2)ccc1O`, the Activity was determined as 7.8%.

`CCOC1=CC(=O)c2ccc3cc(OC)cc(O)c3c2C1=O` came in with an Activity of 0.2%.

On to `CC(C)(Sc1cc(C(C)(C)C)c(O)c(C(C)(C)C)c1)Sc1cc(C(C)(C)C)c(O)c(C(C)(C)C)c1`, for which the Activity came to 1%.

Turning to `COC1=Cc2ccc3cc(O)ccc3c2C(=O)C1(O)CC(C)=O` (configuration not stated), the Activity was 5.3%.

The compound `COc1cc(CCc2ccc(O)c(OC)c2)cc(OC)c1` showed an Activity of 0.9%.

Regarding `Oc1ccc(/C=C/c2cc(O)cc(O)c2)cc1`, the Activity was found to be 0.7%.
